Assay results: ChEMBL document CHEMBL3856267, “Identification of 5,6-dihydroimidazo[2,1-b]thiazoles as a new class of antimicrobial agents” (Bioorg Med Chem, 2016)
Calls of active or inactive are those of the source. The rule behind the calls is not given here.

Experiments:
Staphylococcus aureus [1] = experiment: Growth inhibition of methicillin-resistant Staphylococcus aureus ATCC 33591 at 64 ug/ml measured after overnight incubation by microdilution broth method relative to control; format: functional; conditions: read-out: GI
Staphylococcus aureus [2] = experiment: Antimicrobial activity against methicillin-resistant Staphylococcus aureus ATCC BAA-44 measured after overnight incubation by microdilution broth method; format: functional
Staphylococcus aureus [3] = experiment: Antimicrobial activity against methicillin-resistant Staphylococcus aureus ATCC 33591 measured after overnight incubation by microdilution broth method; format: functional
[4] = Selectivity ratio of MIC90 for methicillin-resistant Staphylococcus aureus ATCC 33591 to MIC90 for methicillin-resistant Staphylococcus aureus ATCC BAA-44; format: functional
[5] = Hemolytic activity in human RBC at 128 ug/ml after 1 hr; format: ADME, cell-based, Erythrocyte; conditions: red blood cells, read-out: Activity
[6] = Cytotoxicity against HEK cells assessed as reduction in cell viability after 48 hrs by MTT assay; format: toxicity, cell-based, HEK293; conditions: human, read-out: MIC50
[7] = Antimicrobial activity against vancomycin-intermediate Staphylococcus aureus Mu50 ATCC 700699 measured after overnight incubation by microdilution broth method; format: functional, Staphylococcus aureus subsp. aureus Mu50
[8] = Selectivity ratio of MIC90 for vancomycin-intermediate Staphylococcus aureus Mu50 ATCC 700699 to MIC90 for methicillin-resistant Staphylococcus aureus ATCC BAA-44; format: functional
[9] = Therapeutic index, ratio of IC50 for HEK cells to MIC90 for methicillin-resistant Staphylococcus aureus ATCC BAA-44; format: cell-based, HEK293; conditions: human, read-out: TI
Staphylococcus aureus [10] = experiment: Inhibition of Staphylococcus aureus DNA gyrase assessed as reduction in supercoiling of relaxed pHOT-1 after 30 mins by SDS based agarose gel electrophoresis
Staphylococcus aureus [11] = experiment: Antimicrobial activity against methicillin-resistant Staphylococcus aureus USA300-0114 infected in Galleria Mellonella assessed as increase in survival of worms at 5 times MIC measured 24 to 48 hrs post dose; format: functional
Staphylococcus aureus [12] = experiment: Antimicrobial activity against methicillin-resistant Staphylococcus aureus USA300-0114 infected in Galleria Mellonella assessed as increase in larvae survival at 10 times MIC measured 24 to 48 hrs post dose; format: functional

CC(C)C[C@H]1CN2C(=N1)SC(c1ccccc1)=C2c1ccccc1
inhibition of growth at 64 µg/mL (Staphylococcus aureus [1]): > 80%
MIC90 (Staphylococcus aureus [2]): 24 µM
MIC90 (Staphylococcus aureus [3]): 48 µM
Selectivity ratio [4]: 2
hemolysis at 1 h, 128 ug/ml [5]: < 2%

N=C(N)NCCC[C@H]1CN2C(c3ccc4ccccc4c3)=CSC2=N1
inhibition of growth at 64 µg/mL (Staphylococcus aureus [1]): > 80%
MIC90 (Staphylococcus aureus [2]): 182 µM
MIC90 (Staphylococcus aureus [3]): 364 µM
Selectivity ratio [4]: 2
hemolysis at 1 h, 128 ug/ml [5]: < 2%

Cn1cc(C[C@@H]2CN3C(=N2)SC(c2ccccc2)=C3c2ccccc2)c2ccccc21
CC50 at 48 h [6]: 63 µM
MIC90 (Staphylococcus aureus [2]): 9.5 µM
MIC90 (Staphylococcus aureus [3]): 38 µM
MIC90 [7]: 19 µM
Selectivity ratio [8]: 2
hemolysis at 1 h, 128 ug/ml [5]: < 2%
selectivity ratio [9]: 6.6

c1ccc(C[C@H]2CN3C(=N2)SC(c2ccccc2)=C3c2ccccc2)cc1
inhibition of growth at 64 µg/mL (Staphylococcus aureus [1]): > 80%
MIC90 (Staphylococcus aureus [2]): 21 µM
MIC90 (Staphylococcus aureus [3]): 173 µM
Selectivity ratio [4]: 2
hemolysis at 1 h, 128 ug/ml [5]: < 2%

CN[C@H](CC(C)C)C(=O)N[C@H]1C(=O)N[C@@H](CC(N)=O)C(=O)N[C@H]2C(=O)N[C@H]3C(=O)N[C@H](C(=O)N[C@H](C(=O)O)c4cc(O)cc(O)c4-c4cc3ccc4O)[C@H](O)c3ccc(c(Cl)c3)Oc3cc2cc(c3O[C@@H]2O[C@H](CO)[C@@H](O)[C@H](O)[C@H]2O[C@H]2C[C@](C)(N)[C@H](O)[C@H](C)O2)Oc2ccc(cc2Cl)[C@H]1O [VANCOMYCIN]
MIC90 (Staphylococcus aureus [2]): 4 µg/mL
MIC90 (Staphylococcus aureus [3]): 2 µg/mL
MIC90 [7]: 8 µg/mL

c1ccc(C[C@@H]2CN3C(=N2)SC(c2ccccc2)=C3c2ccccc2)cc1
CC50 at 48 h [6]: 71 µM
MIC90 (Staphylococcus aureus [2]): 14.6 µM
MIC90 (Staphylococcus aureus [3]): 21 µM
MIC90 [7]: 42 µM
Selectivity ratio [8]: 2
hemolysis at 1 h, 128 ug/ml [5]: < 2%
selectivity ratio [9]: 4.9

Oc1ccc(C[C@@H]2CN3C(=N2)SC(c2ccccc2)=C3c2ccccc2)cc1
CC50 at 48 h [6]: 72 µM
MIC90 (Staphylococcus aureus [2]): 31 µM
MIC90 (Staphylococcus aureus [3]): 20 µM
MIC90 [7]: 40 µM
Selectivity ratio [8]: 2
hemolysis at 1 h, 128 ug/ml [5]: < 2%
selectivity ratio [9]: 2.3

N=C(N)NCCC[C@H]1CN2C(=N1)SC(c1ccccc1)=C2c1ccccc1
inhibition of growth at 64 µg/mL (Staphylococcus aureus [1]): > 80%
MIC90 (Staphylococcus aureus [2]): 338 µM
MIC90 (Staphylococcus aureus [3]): 169 µM
Selectivity ratio [4]: 2
hemolysis at 1 h, 128 ug/ml [5]: < 2%

CC(C)C[C@@H]1CN2C(=N1)SC(c1ccccc1)=C2c1ccccc1
CC50 at 48 h [6]: 56 µM
MIC90 (Staphylococcus aureus [2]): 11 µM
MIC90 (Staphylococcus aureus [3]): 12 µM
MIC90 [7]: 24 µM
Selectivity ratio [8]: 2
hemolysis at 1 h, 128 ug/ml [5]: < 2%
selectivity ratio [9]: 5
inhibition (Staphylococcus aureus [10]): Dose-dependent effect
Activity (Staphylococcus aureus [11]): Active
Activity (Staphylococcus aureus [12]): Active

Cn1cc(C[C@H]2CN3C(=N2)SC(c2ccccc2)=C3c2ccccc2)c2ccccc21
inhibition of growth at 64 µg/mL (Staphylococcus aureus [1]): > 80%
MIC90 (Staphylococcus aureus [2]): 19 µM
MIC90 (Staphylococcus aureus [3]): 151 µM
Selectivity ratio [4]: 2
hemolysis at 1 h, 128 ug/ml [5]: < 2%

N=C(N)NCCC[C@@H]1CN2C(c3ccc4ccccc4c3)=CSC2=N1
CC50 at 48 h [6]: 257 µM
MIC90 (Staphylococcus aureus [2]): 69 µM
MIC90 (Staphylococcus aureus [3]): 69 µM
MIC90 [7]: 184 µM
Selectivity ratio [8]: 2
hemolysis at 1 h, 128 ug/ml [5]: < 2%
selectivity ratio [9]: 3.7

Oc1ccc(C[C@H]2CN3C(=N2)SC(c2ccccc2)=C3c2ccccc2)cc1
inhibition of growth at 64 µg/mL (Staphylococcus aureus [1]): > 80%
MIC90 (Staphylococcus aureus [2]): 42 µM
MIC90 (Staphylococcus aureus [3]): 84 µM
Selectivity ratio [4]: 2
hemolysis at 1 h, 128 ug/ml [5]: < 2%

Cn1cc(C[C@H]2CN3C(c4ccc5ccccc5c4)=CSC3=N2)c2ccccc21
inhibition of growth at 64 µg/mL (Staphylococcus aureus [1]): > 80%
MIC90 (Staphylococcus aureus [2]): 20 µM
MIC90 (Staphylococcus aureus [3]): 162 µM
Selectivity ratio [4]: 2
hemolysis at 1 h, 128 ug/ml [5]: < 2%

COc1cccc(OC)c1C(=O)N[C@@H]1C(=O)N2[C@@H]1SC(C)(C)[C@@H]2C(=O)O [METHICILLIN]
MIC90 (Staphylococcus aureus [2]): > 128 µg/mL
MIC90 (Staphylococcus aureus [3]): > 128 µg/mL
MIC90 [7]: > 128 µg/mL

CC(C)C[C@@H]1CN2C(c3ccc4ccccc4c3)=CSC2=N1
CC50 at 48 h [6]: 36 µM
MIC90 (Staphylococcus aureus [2]): 51 µM
MIC90 (Staphylococcus aureus [3]): 51 µM
MIC90 [7]: 102 µM
Selectivity ratio [8]: 2
hemolysis at 1 h, 128 ug/ml [5]: < 2%
selectivity ratio [9]: 0.7

Cn1cc(C[C@@H]2CN3C(c4ccc5ccccc5c4)=CSC3=N2)c2ccccc21
CC50 at 48 h [6]: 20 µM
MIC90 (Staphylococcus aureus [2]): 10 µM
MIC90 (Staphylococcus aureus [3]): 10 µM
MIC90 [7]: 40 µM
Selectivity ratio [8]: 2
hemolysis at 1 h, 128 ug/ml [5]: < 2%
selectivity ratio [9]: 2

CC(C)C[C@H]1CN2C(c3ccc4ccccc4c3)=CSC2=N1
inhibition of growth at 64 µg/mL (Staphylococcus aureus [1]): > 80%
MIC90 (Staphylococcus aureus [2]): 51 µM
MIC90 (Staphylococcus aureus [3]): 102 µM
Selectivity ratio [4]: 2
hemolysis at 1 h, 128 ug/ml [5]: < 2%

N=C(N)NCCC[C@@H]1CN2C(=N1)SC(c1ccccc1)=C2c1ccccc1
CC50 at 48 h [6]: 100 µM
MIC90 (Staphylococcus aureus [2]): 338 µM
MIC90 (Staphylococcus aureus [3]): 111 µM
MIC90 [7]: 338 µM
Selectivity ratio [8]: 2
hemolysis at 1 h, 128 ug/ml [5]: < 2%
selectivity ratio [9]: 0.3
